From patent US20230066011A1, “PYRROLOPYRIMIDINE DERIVATIVE, AND PHARMACEUTICAL COMPOSITION FOR PREVENTING OR TREATING PROTEIN KINASE-RELATED DISEASE COMPRISING SAME AS ACTIVE INGREDIENT” (VORONOI CO., LTD., priority 2019, published 2023)
Blank lines part the entries; values can stand above or below the compound they belong to.

Legend:
SHP-77 = assay: Inhibition of proliferation of SHP-77 cancer cells (Cell Titer-Glo); assay type: cell-based; conditions: Homo sapiens, SHP77, 72 hours
Description: To evaluate an inhibitory effect on the proliferation of cancer cells, each of an MDA-MB-231 cell line (Korean Cell Line Bank #30026) and an MDA-MB-468 cell line as triple-negative breast cancer cell lines, and SHP-77 (ATCC #CRL-2195) as a small-cell lung cancer cell line was cultured in DMEM (HyClone #SH30243) or an RPMI medium (HyClone #SH3027.01) to analyze a cell growth rate. More specifically, a cell line was plated on a 96-well flat bottom plate (Corning #3903) at a density of 2,000 cells/100 μL per well, and then treated with 11 concentrations of the Example compound, a solution of which was diluted 3-fold so that a final concentration of the compound was 10.000000, 3.333333, 1.111111, 0.370370, 0.123457, 0.041152, 0.013717, 0.004572, 0.001524, 0.000508, and 0.000169 μM. After 72 hours, each of the culture media was treated with 100 μL of Cell Titer-Glo (Promega G7573), and then cultured at room temperature for 10 minutes. Then, a degree of luminescence was measured using a microplate reader. A GI50 value was calculated from the measured degree of luminescence using Prism (Version 8.2 GraphPad) software.

MDA-MB-468 cell line = assay: Inhibition of proliferation of MDA-MB-468 cancer cells (Cell Titer-Glo); assay type: cell-based; conditions: Homo sapiens, MDA-MB-468, 72 hours
Outline: (§1)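 A 72-hour treatment with compound (eleven final concentrations, 3-fold apart, top 10 μM) of cells seeded at 2,000 per well preceded a Cell Titer-Glo luminescence read, from which GI50 was obtained.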

LRRK2 = LRRK2 (Homo sapiens, UniProt Q5S007); assay: LRRK2 enzyme inhibition, ADP-Glo kinase assay; assay type: biochemical; design: purchased Invitrogen PR8604B; conditions: ATP 10 μM
LRRK2, sequence (Q5S007 970-2527 limits assumed): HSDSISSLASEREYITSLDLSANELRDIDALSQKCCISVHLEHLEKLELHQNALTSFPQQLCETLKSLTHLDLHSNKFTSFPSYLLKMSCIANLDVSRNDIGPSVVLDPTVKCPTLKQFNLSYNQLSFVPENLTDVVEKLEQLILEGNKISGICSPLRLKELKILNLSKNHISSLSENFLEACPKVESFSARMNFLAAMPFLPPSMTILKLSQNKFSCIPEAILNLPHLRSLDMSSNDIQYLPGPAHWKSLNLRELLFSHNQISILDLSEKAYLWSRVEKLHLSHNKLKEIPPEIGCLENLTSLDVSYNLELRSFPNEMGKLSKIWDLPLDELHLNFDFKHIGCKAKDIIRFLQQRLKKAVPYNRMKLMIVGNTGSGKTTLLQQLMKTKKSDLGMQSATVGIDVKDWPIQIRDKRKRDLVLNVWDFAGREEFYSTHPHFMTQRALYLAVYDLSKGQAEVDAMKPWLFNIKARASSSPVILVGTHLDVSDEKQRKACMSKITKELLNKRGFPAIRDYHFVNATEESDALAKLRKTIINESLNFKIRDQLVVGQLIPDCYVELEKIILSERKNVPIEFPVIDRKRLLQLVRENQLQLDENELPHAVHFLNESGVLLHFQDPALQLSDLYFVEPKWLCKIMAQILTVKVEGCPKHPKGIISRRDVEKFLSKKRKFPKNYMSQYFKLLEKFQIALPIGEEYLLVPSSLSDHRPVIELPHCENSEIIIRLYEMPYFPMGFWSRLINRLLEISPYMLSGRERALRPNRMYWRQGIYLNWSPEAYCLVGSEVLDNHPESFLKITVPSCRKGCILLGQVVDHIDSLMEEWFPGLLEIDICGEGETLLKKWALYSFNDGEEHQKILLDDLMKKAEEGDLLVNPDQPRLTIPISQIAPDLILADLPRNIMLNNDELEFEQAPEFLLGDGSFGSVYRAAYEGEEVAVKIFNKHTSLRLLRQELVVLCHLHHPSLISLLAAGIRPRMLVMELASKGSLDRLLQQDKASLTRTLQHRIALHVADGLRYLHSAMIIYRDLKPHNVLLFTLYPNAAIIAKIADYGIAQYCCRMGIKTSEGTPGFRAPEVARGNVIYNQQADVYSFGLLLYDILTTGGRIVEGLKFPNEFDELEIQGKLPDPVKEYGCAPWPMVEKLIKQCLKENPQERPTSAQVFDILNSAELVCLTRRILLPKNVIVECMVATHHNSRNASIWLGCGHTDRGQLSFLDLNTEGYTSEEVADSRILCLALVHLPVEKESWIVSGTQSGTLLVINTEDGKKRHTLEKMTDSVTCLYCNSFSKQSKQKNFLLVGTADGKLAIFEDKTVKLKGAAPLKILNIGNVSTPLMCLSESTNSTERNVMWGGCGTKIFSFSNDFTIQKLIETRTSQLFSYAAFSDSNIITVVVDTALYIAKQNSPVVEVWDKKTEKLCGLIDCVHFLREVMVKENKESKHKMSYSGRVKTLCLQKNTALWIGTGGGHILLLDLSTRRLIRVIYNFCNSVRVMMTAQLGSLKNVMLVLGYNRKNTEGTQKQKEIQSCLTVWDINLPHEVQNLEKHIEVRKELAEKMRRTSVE
Outline: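 ADP-Glo luminescent read-out of ADP formed by purified human LRRK2 enzyme (25 ng), 10 μM ATP, 0.2 μg substrate, 25° C for 2 h, Tris-HCl pH 7.4 buffer with MgCl2, BSA, DTT. Inhibition versus untreated solvent control over twelve final concentrations (50 μM downward) gives IC50.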

MDA-MB-231 cell line = assay: Inhibition of proliferation of MDA-MB-231 cancer cells (Cell Titer-Glo); assay type: cell-based; conditions: Homo sapiens, 72 hours
Outline: as §1

human GST-DYRK1A = biological target: T1, human GST-DYRK1A (Homo sapiens, UniProt Q13627); assay: GST-DYRK1A enzyme inhibition, ADP-Glo kinase assay; assay type: biochemical; conditions: ATP 10 μM, GST-DYRK1A full length, read-out: DYRK1 IC50
T1 construct: purified human GST-DYRK1A (full length, Thermo Scientifics) enzyme; purchased Thermo Scientifics
Outline: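 Full-length enzyme (10 ng) was incubated with 10 μM ATP and a specific substrate for 1 h at 25 °C in 40 mM Tris-HCl pH 7.4, 20 mM MgCl2, 0.5 mg/mL BSA, 50 μM DTT. Luminescence was read against a solvent control, and IC50 values were derived from 3 data sets.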

LRRK2 (G2019S) = LRRK2 (G2019S) (Homo sapiens, UniProt Q5S007, G2019S); assay: LRRK2 G2019S enzyme inhibition, ADP-Glo kinase assay; assay type: biochemical; design: purchased SignalChem L10-12GG; conditions: ATP 25 μM
LRRK2 (G2019S), sequence (Q5S007 970-2527 G2019S limits assumed): as the sequence (Q5S007 970-2527 limits assumed) above, with G1050S counted along it
Outline: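 IC50 derived from luminescent ADP-Glo readout against untreated solvent control, twelve final compound concentrations from 50 μM downward. Reaction: recombinant human LRRK2 G2019S enzyme, 25 μM ATP, substrate, pH 7.4 Tris buffer with MgCl2/BSA/DTT, 25° C. for 2 hours.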

human GST-CLK1 = biological target: T2, human GST-CLK1 (Homo sapiens, UniProt P49759); assay: GST-CLK1 enzyme inhibition, ADP-Glo kinase assay; assay type: biochemical; conditions: ATP 10 μM, GST-CLK1 129-end
T2 construct: purified human GST-CLK1 (129-end, SignalChem) enzyme; purchased SignalChem
T2 sequence (P49759 129-484 limits assumed): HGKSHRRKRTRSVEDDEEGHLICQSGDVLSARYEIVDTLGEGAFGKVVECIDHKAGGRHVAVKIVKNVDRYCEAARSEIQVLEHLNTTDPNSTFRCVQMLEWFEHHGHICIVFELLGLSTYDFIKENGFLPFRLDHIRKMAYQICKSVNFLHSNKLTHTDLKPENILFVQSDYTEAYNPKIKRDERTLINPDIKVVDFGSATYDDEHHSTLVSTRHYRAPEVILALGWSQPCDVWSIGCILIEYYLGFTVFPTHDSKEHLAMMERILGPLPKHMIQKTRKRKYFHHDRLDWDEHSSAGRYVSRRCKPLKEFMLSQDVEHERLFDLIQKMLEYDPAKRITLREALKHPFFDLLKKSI
Outline: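 ADP-Glo luminescence read-out, relative to untreated solvent control, gave IC50 (nM) from triplicate data sets. Reactions ran an hour at 25° C with 3 ng GST-CLK1 (residues 129-end), 10 μM ATP and specific substrate in Tris-HCl pH 7.4 buffer with MgCl2, BSA and DTT.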

Compound: COc1cc(S(=O)(=O)N2CCOCC2)ccc1Nc1nc(NC2CCCCC2)c2c(C#N)c[nH]c2n1 [Example 73]
GI50 (SHP-77): < 50 nM
GI50 (MDA-MB-468 cell line): 101 to 300 nM
IC50 (LRRK2): < 100 nM
GI50 (MDA-MB-231 cell line): < 50 nM
IC50 (human GST-DYRK1A): 301 to 1000 nM
IC50 (LRRK2 (G2019S)): 301 to 1000 nM
IC50 (human GST-CLK1): 301 to 1000 nM

Compound: COc1cc(S(=O)(=O)N2CCC(N3CCOCC3)CC2)ccc1Nc1nc(NC2CCCCC2)c2c(C#N)c[nH]c2n1 [Example 91, 4-(cyclohexylamino)-2-((2-methoxy-4-((4-morpholinopiperidin-1-yl)sulfonyl)phenyl)amino)-7H-pyrrolo[2,3-d]pyrimidine-5-carbonitrile]
GI50 (SHP-77): < 50 nM
GI50 (MDA-MB-468 cell line): 51 to 100 nM
IC50 (LRRK2): < 100 nM
GI50 (MDA-MB-231 cell line): 51 to 100 nM
IC50 (human GST-DYRK1A): 301 to 1000 nM
IC50 (LRRK2 (G2019S)): < 100 nM
IC50 (human GST-CLK1): 301 to 1000 nM

Compound: COc1cc(S(=O)(=O)N2CCOCC2)ccc1Nc1nc(N[C@H]2CCOC2)c2c(C#N)c[nH]c2n1 [Example 75, (S)-2-((2-methoxy-4-(morpholinosulfonyl)phenyl)amino)-4-((tetrahydrofuran-3-yl)amino)-7H-pyrrolo[2,3-d]pyrimidine-5-carbonitrile]
GI50 (SHP-77): < 50 nM
GI50 (MDA-MB-468 cell line): 101 to 300 nM
GI50 (MDA-MB-231 cell line): 51 to 100 nM
IC50 (human GST-DYRK1A): 301 to 1000 nM
IC50 (human GST-CLK1): 301 to 1000 nM

Compound: COc1cc(S(=O)(=O)N2CCC(N3CCOCC3)CC2)ccc1Nc1nc(NC2CCCC2)c2c(C#N)c[nH]c2n1 [Example 90, 4-(cyclopentylamino)-2-((2-methoxy-4-((4-morpholinopiperidin-1-yl)sulfonyl)phenyl)amino)-7H-pyrrolo[2,3-d]pyrimidine-5-carbonitrile]
GI50 (SHP-77): 101 to 300 nM
GI50 (MDA-MB-468 cell line): 51 to 100 nM
IC50 (LRRK2): 101 to 300 nM
GI50 (MDA-MB-231 cell line): 51 to 100 nM
IC50 (human GST-DYRK1A): 301 to 1000 nM
IC50 (LRRK2 (G2019S)): < 100 nM
IC50 (human GST-CLK1): 301 to 1000 nM

Compound: COCCNc1nc(Nc2ccc(S(=O)(=O)N3CCOCC3)cc2OC)nc2[nH]cc(C#N)c12 [Example 69, 2-((2-methoxy-4-(morpholinosulfonyl)phenyl)amino)-4-((2-methoxyethyl)amino)-7H-pyrrolo[2,3-d]pyrimidine-5-carbonitrile]
GI50 (SHP-77): 301 to 1000 nM
IC50 (LRRK2): < 100 nM
GI50 (MDA-MB-231 cell line): 301 to 1000 nM
IC50 (human GST-DYRK1A): 301 to 1000 nM
IC50 (LRRK2 (G2019S)): < 100 nM
IC50 (human GST-CLK1): 301 to 1000 nM

Compound: COc1cc(S(=O)(=O)N2CCOCC2)ccc1Nc1nc(NC2CCCC2)c2c(C#N)c[nH]c2n1 [Example 72, 4-(cyclopentylamino)-2-((2-methoxy-4-(morpholinosulfonyl)phenyl)amino)-7H-pyrrolo[2,3-d]pyrimidine-5-carbonitrile]
GI50 (SHP-77): < 50 nM
IC50 (LRRK2): 301 to 1000 nM
GI50 (MDA-MB-231 cell line): < 50 nM
IC50 (human GST-DYRK1A): 301 to 1000 nM
IC50 (LRRK2 (G2019S)): 301 to 1000 nM
IC50 (human GST-CLK1): 301 to 1000 nM

Compound: COc1cc(S(=O)(=O)N2CCOCC2)ccc1Nc1nc(NC2CC2)c2c(C#N)c[nH]c2n1 [Example 70, 4-(cyclopropylamino)-2-((2-methoxy-4-(morpholinosulfonyl)phenyl)amino)-7H-pyrrolo[2,3-d]pyrimidine-5-carbonitrile]
GI50 (SHP-77): 301 to 1000 nM
IC50 (LRRK2): < 100 nM
GI50 (MDA-MB-231 cell line): 301 to 1000 nM
IC50 (human GST-DYRK1A): 301 to 1000 nM
IC50 (LRRK2 (G2019S)): < 100 nM
IC50 (human GST-CLK1): 301 to 1000 nM

Next, values leading:

GI50 (SHP-77): < 50 nM
IC50 (LRRK2): < 100 nM
GI50 (MDA-MB-231 cell line): < 50 nM
IC50 (human GST-DYRK1A): 301 to 1000 nM
IC50 (LRRK2 (G2019S)): < 100 nM
IC50 (human GST-CLK1): 301 to 1000 nM
Compound: CCCCNc1nc(Nc2ccc(S(=O)(=O)N3CCC(N4CCOCC4)CC3)cc2OC)nc2[nH]cc(C#N)c12 [Example 97, 4-(butylamino)-2-((2-methoxy-4-((4-morpholinopiperidin-1-yl)sulfonyl)phenyl)amino)-7H-pyrrolo[2,3-d]pyrimidine-5-carbonitrile]

GI50 (SHP-77): 101 to 300 nM
IC50 (LRRK2): 301 to 1000 nM
GI50 (MDA-MB-231 cell line): 301 to 1000 nM
IC50 (human GST-DYRK1A): 301 to 1000 nM
IC50 (LRRK2 (G2019S)): 301 to 1000 nM
IC50 (human GST-CLK1): 301 to 1000 nM
Compound: CC[C@@H](C)Nc1nc(Nc2ccc(S(=O)(=O)N3CCC(N4CCOCC4)CC3)cc2OC)nc2[nH]cc(C(F)(F)F)c12 [Example 172, (R)-N^4-(sec-butyl)-N^2-(2-methoxy-4-((4-morpholinopiperidin-1-yl)sulfonyl)phenyl)-5-(trifluoromethyl)-7H-pyrrolo[2,3-d]pyrimidine-2,4-diamine]

GI50 (SHP-77): 51 to 100 nM
IC50 (LRRK2): < 100 nM
GI50 (MDA-MB-231 cell line): 301 to 1000 nM
IC50 (human GST-DYRK1A): 301 to 1000 nM
IC50 (LRRK2 (G2019S)): 301 to 1000 nM
IC50 (human GST-CLK1): 301 to 1000 nM
Compound: CNc1nc(Nc2ccc(S(=O)(=O)N3CCOCC3)cc2OC)nc2[nH]cc(C(F)(F)F)c12 [Example 160, N^2-(2-methoxy-4-(morpholinosulfonyl)phenyl)-N^4-methyl-5-(trifluoromethyl)-7H-pyrrolo[2,3-d]pyrimidine-2,4-diamine]

GI50 (SHP-77): 51 to 100 nM
IC50 (LRRK2): < 100 nM
GI50 (MDA-MB-231 cell line): < 50 nM
IC50 (human GST-DYRK1A): 301 to 1000 nM
IC50 (LRRK2 (G2019S)): 101 to 300 nM
IC50 (human GST-CLK1): 301 to 1000 nM
Compound: COc1cc(S(=O)(=O)N2CCC(N3CCOCC3)CC2)ccc1Nc1nc(NC(C)C)c2c(C(F)(F)F)c[nH]c2n1 [Example 165, N^4-isopropyl-N^2-(2-methoxy-4-((4-morpholinopiperidin-1-yl)sulfonyl)phenyl)-5-(trifluoromethyl)-7H-pyrrolo[2,3-d]pyrimidine-2,4-diamine]

GI50 (SHP-77): 101 to 300 nM
IC50 (LRRK2): < 100 nM
GI50 (MDA-MB-231 cell line): 301 to 1000 nM
IC50 (human GST-DYRK1A): 101 to 300 nM
IC50 (LRRK2 (G2019S)): < 100 nM
IC50 (human GST-CLK1): < 100 nM
Compound: COCCNc1nc(Nc2ccc(S(=O)(=O)N3CCC(N4CCOCC4)CC3)cc2OC)nc2[nH]cc(C(F)(F)F)c12 [Example 170, N^2-(2-methoxy-4-((4-morpholinopiperidin-1-yl)sulfonyl)phenyl)-N^4-(2-methoxyethyl)-5-(trifluoromethyl)-7H-pyrrolo[2,3-d]pyrimidine-2,4-diamine]

GI50 (SHP-77): 101 to 300 nM
IC50 (LRRK2): 301 to 1000 nM
GI50 (MDA-MB-231 cell line): 301 to 1000 nM
IC50 (human GST-DYRK1A): 301 to 1000 nM
IC50 (LRRK2 (G2019S)): 301 to 1000 nM
IC50 (human GST-CLK1): 301 to 1000 nM
Compound: COCC(C)(C)Nc1nc(Nc2ccc(S(=O)(=O)N3CCOCC3)cc2OC)nc2[nH]cc(C(F)(F)F)c12 [Example 175, N^4-(1-methoxy-2-methylpropan-2-yl)-N^2-(2-methoxy-4-(morpholinosulfonyl)phenyl)-5-(trifluoromethyl)-7H-pyrrolo[2,3-d]pyrimidine-2,4-diamine]
